According to ChEMBL document CHEMBL4673347, “Discovery of new thieno[2,3-d]pyrimidine and thiazolo[5,4-d]pyrimidine derivatives as orally active phosphoinositide 3-kinase inhibitors” (Bioorg Med Chem, 2021):
The source made the active and inactive calls. The rule behind the calls is not given here.

Assays:
NCI-H292 = experiment: Antiproliferative activity against human NCI-H292 cells assessed as reduction in cell viability incubated for 72 hrs measured after 4 hrs of MTT addition by MTT assay; assay type: functional, cell-based
HGC-27 [1] = experiment: Induction of apoptosis in human HGC-27 cells assessed as late apoptotic cells at 500 nM incubated for 24 hrs by annexin V-FITC and propidium iodide based staining based flow cytometry analysis (reference value: 8.15 %); assay type: functional
BGC-823 = experiment: Antiproliferative activity against human BGC-823 cells assessed as reduction in cell viability incubated for 72 hrs measured after 4 hrs of MTT addition by MTT assay; assay type: functional, cell-based
NCI-H1437 = experiment: Antiproliferative activity against human NCI-H1437 cells assessed as reduction in cell viability incubated for 72 hrs measured after 4 hrs of MTT addition by MTT assay; assay type: functional, cell-based
MDA-MB-231 = experiment: Antiproliferative activity against human MDA-MB-231 cells assessed as reduction in cell viability incubated for 72 hrs measured after 4 hrs of MTT addition by MTT assay; assay type: functional, cell-based
[2] = Apparent permeability across basolateral to apical side in human Caco-2 cells; assay type: ADME, cell-based
[3] = Protein binding in plasma (unknown origin) assessed as unbound fraction; assay type: ADME, cell-free
[4] = AUC (0 to t) in ICR mouse at 4 mg/kg, iv measured upto 24 hrs by LC-MS/MS analysis; assay type: ADME, organism-based; parameters: route intravenous, dose 4 mg/kg, time <=24; conditions: in vivo
[5] = AUC (0 to infinity) in ICR mouse at 4 mg/kg, iv measured upto 24 hrs by LC-MS/MS analysis; assay type: ADME, organism-based; parameters: route intravenous, dose 4 mg/kg, time <=24; conditions: in vivo
[6] = Cmax in ICR mouse at 40 mg/kg, po measured upto 24 hrs by LC-MS/MS analysis; assay type: ADME, organism-based; parameters: route oral, dose 40 mg/kg, time <=24; conditions: in vivo
[7] = AUC (0 to t) in ICR mouse at 40 mg/kg, po measured upto 24 hrs by LC-MS/MS analysis; assay type: ADME, organism-based; parameters: route oral, dose 40 mg/kg, time <=24; conditions: in vivo
[8] = AUC (0 to infinity) in ICR mouse at 40 mg/kg, po measured upto 24 hrs by LC-MS/MS analysis; assay type: ADME, organism-based; parameters: route oral, dose 40 mg/kg, time <=24; conditions: in vivo
Mus musculus = experiment: In vivo inhibition of PI3Kalpha in BALB/c mouse assessed as increase in plasma insulin level at 40 mg/kg, po measured after 24 hrs; assay type: functional, organism-based
HGC-27 [9] = experiment: Antitumor activity against human HGC-27 cells xenografted in BALB/c mouse assessed as tumor growth inhibition administered orally for 25 days and measured on day 25; assay type: functional; conditions: time 25.0 day
HGC-27 [10] = experiment: Antitumor activity against human HGC-27 cells xenografted in BALB/c mouse assessed as tumor growth inhibition at 20 mg/kg, po administered for 25 days and measured on day 25 relative to control; assay type: functional; conditions: HGC-27, po, 600 h, time 25 day, read-out: TGI
[11] = Toxicity in BALB/c mouse xenografted with human HGC-27 cells assessed as body weight reduction at 40 mg/kg, po administered for 25 days and measured on day 25; assay type: organism-based; parameters: scale not given: the % may be the effect or the level left; conditions: in vivo, 600 h, time 25 day

Row | IC50 (NCI-H292) | IC50 (BGC-823) | IC50 (NCI-H1437) | IC50 (MDA-MB-231) | Papp B→A [2] | Fu [3] | AUC(0-t) at 24 h [4] | AUC(0-inf) [5] | Cmax [6] | AUC(0-t) at 24 h [7] | AUC(0-inf) [8] | SMILES | Activity (HGC-27 [1]) | inhibition (Mus musculus) | TGI (HGC-27 [9]) | inhibition in vivo at 20 mg/kg (HGC-27 [10]) | Activity [11]
1 | 2.7 µM | 4.2 µM | 2.9 µM | 8.2 µM | 37.6 ×10⁻⁶ cm/s | 0.3% | 14300 ng·h/mL | 14600 ng·h/mL | 22500 ng/mL | 143000 ng·h/mL | 187000 ng·h/mL | COc1ncc(-c2cc3c(N4CCOCC4)ncnc3s2)cc1NS(=O)(=O)c1ccc(F)cc1F | 8.87% | inactive | – | – | –
2 | 0.32 µM | 1.1 µM | 1.1 µM | 0.86 µM | 43.4 ×10⁻⁶ cm/s | 0.3% | 23200 ng·h/mL | 25300 ng·h/mL | 9610 ng/mL | 126000 ng·h/mL | 142000 ng·h/mL | COc1ncc(-c2nc3c(N4CCOCC4)ncnc3s2)cc1NS(=O)(=O)c1ccc(F)cc1F | 4.53% | inactive | Dose-dependent effect | 75.5% | 14.8%
